The text below walks through data of US10532065B2, “Bisphosphonic acid derivative and application for same” (NAGASAKI UNIVERSITY, priority 2014, dated 2020).

Holding throughout (assay type): cell-based
The subject of one assay is PC-3 cells / γδ T cells. The assay can be described thus: TNF-α production from γδ T cells stimulated by compound-pretreated PC-3 cells. The conditions noted are these: PC-3, Prostate cancer, 4 hr pretreatment, 16 hr with γδ T cells, read-out: TNF-α50. The procedure:
(§1) Since the above-mentioned results of Experimental Example confirm that the activity of bisphosphonic acids becomes high by POM esterification in various tumor cells, the TNF-α production induction ability of more number of tumor cells was quantitatively studied. […] Thereto was added a solution (500 μl) of compound 7 obtained by serially diluting 10 mM stock solution 10-fold from 20 μM, or a solution (500 μl) of compound 14 obtained by serially diluting 10 mM stock solution 10-fold from 200 μM, and the cells were suspended well. These conical tubes were stood at 37° C. for 4 hr, and the cells were washed 3 times with 5 ml of culture medium. To these cells was added 500 μl of medium, and the cells were suspended well. […] The cell culture medium was suspended well, and the plate was centrifuged at 1,700 rpm, 4° C. for 2 min and the culture supernatant (150 μl) was taken and placed in another round-bottomed 96 well plate. The plate was frozen at −80° C. overnight, left standing at room temperature for 1 hr, stirred well and 100 μl thereof was subjected to ELISA of TNF-α. The content of TNF-α was calculated from the analytical curve of TNF-α. These were performed in triplicate, and TNF-α50 of bisphosphonic acid POM ester derivative (compound 7) and bisphosphonic acid (compound 14) was calculated and summarized in Table 8.

For a further assay, the system named is Raji cells. The assay can be described thus: Raji tumor cell growth inhibition (CellTiterGlo). The conditions noted are these: Burkitt's lymphoma, 4 days culture. A general note: Cellular ATP, detected with luciferase, serves as a proxy for viable cell number.
Another assay concerns MRK-nu-1 cells. Put plainly: MRK-nu-1 tumor cell growth inhibition (CellTiterGlo). The conditions noted are these: MRK-nu-1, Mammary carcinoma, 4 days culture.
In the next assay the test system is MKN1 cells. The assay can be described thus: MKN1 tumor cell growth inhibition (CellTiterGlo). The conditions noted are these: MKN1, Gastric cancer, 4 days culture.
For the next assay, the system named is RAMOS-RA1 cells. The assay can be described thus: RAMOS-RA1 tumor cell growth inhibition (CellTiterGlo). The conditions noted are these: PAMOS-RA1 (so in the source), Burkitt's lymphoma, 4 days culture.
The subject of the next assay is MKN1 cells / γδ T cells. The assay can be described thus: TNF-α production from γδ T cells stimulated by compound-pretreated MKN1 cells. The conditions noted are these: MKN1, Gastric cancer, 4 hr pretreatment, 16 hr with γδ T cells, read-out: TNF-α50. The procedure: as §1
The subject of another assay is MOLT-4 cells. The assay can be described thus: MOLT-4 tumor cell growth inhibition (CellTiterGlo). The conditions noted are these: MOLT-4, Acute lymphoblastic leukemia, 4 days culture.
Another assay relates to EJ-1 cells / γδ T cells. Put plainly: TNF-α production from γδ T cells stimulated by compound-pretreated EJ-1 cells (indirect antitumor action, ELISA). The conditions noted are these: for EC50: EJ-1 pretreated 4 hr with compound, 16 hr with γδ T cells, TNF-α ELISA, read-out: TNF-α50. In a few lines: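 EJ-1 cells exposed 4 h at 37 °C to 10-fold serial dilutions (POM esters from 20 µM, bisphosphonic acids from 200 µM), washed three times, then co-cultured with γδ T cells. Supernatant TNF-α measured by ELISA against a standard curve, in triplicate; TNF-α50 = […].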

For assay [1], the system named is MOLT-3 cells / γδ T cells. The assay can be described thus: TNF-α production from γδ T cells stimulated by compound-pretreated MOLT-3 cells. The conditions noted are these: MOLT-3, Acute lymphoblastic leukemia, 4 hr pretreatment, 16 hr with γδ T cells, read-out: TNF-α50. The procedure: as §1
In the next assay the test system is C1R cells. The assay can be described thus: C1R tumor cell growth inhibition (CellTiterGlo). The conditions noted are these: B cell lymphoma, 4 days culture.

Molecules are shown by their SMILES. Where two headings read alike, the source gives them in different places. Bounds are passed on as bounds.

For orientation: IC50 means the concentration that inhibits the measured activity by half. Low values mean inhibition by little substance, high ones a need for much substance.

Experimental for C1R cells: (§2) To quantitatively study an action of compound 7, which is a bisphosphonic acid POM ester derivative, on various hematologic tumor-derived lymphoma and myeloidic leukemia cells, the concentration of a compound that inhibits cell proliferation to half was calculated as IC50, and a direct antitumor effect was studied from the value thereof. […] First, MOLT-4, THP-1, SCC-3, PEER, RAMOS-RA1, C1R, MOLT-3, Raji, U937, K562, Daudi were cultured in RPMI1640 medium supplemented with 10% calf serum at 37° C. under 5% CO2 atmosphere while maintaining log phase. The cells were recovered, and centrifuged at 1,700 rpm, 4° C. for 5 min. The supernatant was removed, and suspended in RPMI1640 medium supplemented with 10% calf serum to 500 cells/50 μl. On the other hand, 10 mM stock solution of compound 7 which is a bisphosphonic acid POM ester derivative was serially diluted 2-fold from 200 μM. In addition, 10 mM stock solution of compound 14 which is bisphosphonic acid was serially diluted 2-fold from 2 mM. Then, the cell suspension (50 μl, 500 cells) and the compound solution (50 μl) were added to a flat-bottomed 96 well plate and cultured at 37° C. under 5% CO2 atmosphere for 4 days. Then, 100 μl of CellTiterGlo solution was added, and the mixture was pipetted 10 strokes, and transferred to a 96 well OptiPlate. […]
Experimental for MOLT-4 cells: as §2
Experimental for MRK-nu-1 cells: First, EJ-1, 786-0, MKN1, OST, PC-3, PK-1, LK-2, G-361, TFK-1, MRK-nu-1 were cultured in RPMI1640 medium supplemented with 10% calf serum at 37° C. under 5% CO2 atmosphere while maintaining log phase. The cells were recovered by a conventional EDTA trypsin treatment, and centrifuged at 1,700 rpm, 4° C. for 5 min. The supernatant was removed, and suspended in RPMI1640 medium supplemented with 10% calf serum to 500 cells/50 μl. On the other hand, 10 mM stock solution of compound 7 which is a bisphosphonic acid POM ester derivative was serially diluted 2-fold from 200 pM. In addition, 10 mM stock solution of compound 14 which is bisphosphonic acid was serially diluted 2-fold from 2 mM. Then, the cell suspension (50 μl, 500 cells) and the compound solution (50 μl) were added to a flat-bottomed 96 well plate and cultured at 37° C. under 5% CO2 atmosphere for 4 days. Then, 100 μl of CellTiterGlo solution was added, and the mixture was pipetted 10 strokes, and transferred to a 96 well OptiPlate. After standing at room temperature for 10 min, the luminescence was measured by a luminometer and IC50 value was calculated.
Experimental for RAMOS-RA1 cells: as §2
Experimental for Raji cells: as §2

On to `CC(C)(C)C(=O)OCOP(=O)(OCOC(=O)C(C)(C)C)C(CNc1nccs1)P(=O)(OCOC(=O)C(C)(C)C)OCOC(=O)C(C)(C)C` [Compound 7, tetrakispivaloyloxymethyl 2-(thiazol-2-ylamino) ethylidene-1,1-bisphosphonate], for which the EC50 with PC-3 cells / γδ T cells amounted to 0.065 µM; in the assay with MKN1 cells / γδ T cells, 0.56 µM; in the assay with EJ-1 cells / γδ T cells, 0.06 µM; in [1], 0.066 µM. Further, the IC50 in the assay with Raji cells amounted to 0.27 µM; in the assay with MRK-nu-1 cells, 0.74 µM; in the assay on MKN1 cells it was 1.2 µM; in the assay on RAMOS-RA1 cells it was 0.11 µM; with MOLT-4 cells it was 0.16 µM; with C1R cells, 0.078 µM. In the assay on EJ-1 cells / γδ T cells (EJ-1 pretreated with compound, γδ T cells), the “TNF-α production induction activity (in words)” value is “high activity”.
Regarding `O=P(O)(O)C(CNc1nccs1)P(=O)(O)O` [Compound 14, 2-(thiazol-2-ylamino)ethylidene-1,1-bisphosphonic Acid, reference compound], the EC50 was 77 µM in the assay on PC-3 cells / γδ T cells (Homo sapiens); 89 µM in the assay with MKN1 cells / γδ T cells (Homo sapiens, MKN-1); 68 µM in the assay on EJ-1 cells / γδ T cells (EJ1); above 100 µM in [1] (Homo sapiens). For the same compound, the half-inhibitory concentration (IC50) with Raji cells (Homo sapiens, 96 h) turned out to be 120 µM; in the assay on MRK-nu-1 cells (Homo sapiens, 96 h), 210 µM; with MKN1 cells (Homo sapiens, MKN-1, 96 h), 100 µM; in the assay with RAMOS-RA1 cells (96 h) it was 75 µM; in the assay on MOLT-4 cells (Homo sapiens, 96 h), 120 µM; with C1R cells (96 h) it was 79 µM.
